According to patent US20250075126A1, “DIQUATERNARY COMPOUNDS FOR CORROSION INHIBITION AND METHODS OF USE THEREOF” (ChampionX LLC, priority 2023, published 2025):
Each block holds one compound with its values, some of them ahead of it.

Experiments:
[1] = Bubble cell test, corrosion rate by linear polarization resistance (LPR); conditions: 66° C.; for % Protection: 10 ppm CI composition (2 ppm active) with 0.5 ppm 2-mercaptoethanol, versus avg. blank corrosion rate, 22 hour; for Corrosion rate after 22 hour CI injection: 10 ppm CI composition (20% active = 2 ppm active) with 0.5 ppm 2-mercaptoethanol, CO2-saturated synthetic brine 80% / LVT-200 20%, 100 rpm
Experimental: Examples were conducted to assess the corrosion inhibitors produced in Example 1 using bubble cell tests to assess corrosion performance using linear polarization resistance testing. The corrosion inhibitor was combined with the sulfur synergist 2-mercaptoethanol.
The bubble test simulates low flow areas where little or no mixing of water and oil occurs. The test was conducted using synthetic brine (80% of the brine and 20% of a hydrocarbon containing LVT-200) as shown in Table 1.
The brine was placed into kettles and purged with carbon dioxide resulting in carbon dioxide saturated brine. The brine was continually purged with carbon dioxide at 1 bar CO2 to saturate the brine prior to starting the test for a 2 hour pre-corrode. After the test began, the test cell was blanketed with carbon dioxide one hour prior to electrode insertion and through the duration of the test to maintain saturation. The kettles were stirred at 100 revolutions per minute (rpm) for the duration of the test at 66° C.
The corrosion rate was measured by Linear Polarization Resistance (LPR) techniques. The working electrode used was carbon steel (C1018 grade). The counter and reference electrodes were both 1018 carbon steel. The electrodes were all cleaned and polished prior to testing. Data were collected for 2 hours before 10 ppm of the corrosion inhibitor composition (containing 20% of the reaction product corrosion inhibitor) was added to the hydrocarbon phase, equating to 2 ppm of the active reaction product corrosion inhibitor with 0.5 ppm 2-mercaptoethanol being introduced into the test cell. Data were collected overnight for 22 hour test duration.

[2] = Partitioning test, brine/oil, LC-MS analysis; assay type: physicochemical; conditions: 50 ppm dosed into oil layer; 50 mL synthetic brine, 25 mL aromatic 150, 25 mL LVT 200; room temperature; 1 hour rest
Experimental: Additional comparison testing was conducted on the alkyl diquaternary compound corrosion inhibitor of Example 1 (corrosion inhibitor VIa) compared to as conventional quaternary ammonium compounds. Partitioning tests were conducted of the corrosion inhibitor (VIa) and a quaternary ammonium compound (trimethylstearyl benzyl chloride quat) to determine the partitioning coefficient via LC-MS (Liquid Chromatography-Mass Spectroscopy) analysis.
At room temperature, 50 mL of the synthetic brine of Table 1, 25 mL of aromatic 150, and 25 mL of LVT 200 were pipetted into a 125-mL separational funnel. 50 ppm of the corrosion inhibitor (VIa) or trimethylstearyl benzyl chloride quat were dosed into the oil layer of the funnel. The cap was inserted into the funnel and the mixture was shaken vigorously for one minute and then set for an hour. After the hour rest, the bottom layer (brine layer) was drained and collected for LC-MS analysis. LC-MS analysis determines the amount of the corrosion inhibitor (VIa) and trimethylstearyl benzyl chloride quat that partitioned into the brine phase. The amount found in the brine phase was compared to the original amount introduced into the oil phase of the brine/oil solution (50 ppm) and a percentage amount is calculated. The percent amount of the corrosion inhibitor (VIa) and trimethylstearyl benzyl chloride quat present in the brine phase is shown in Table 4.

% Partitioning to brine phase [2]: 84.1%
Compound: CCCCCCCCCCCCCCCCCC[N+](C)(C)CC(O)C[N+](CCO)(CCO)CCO (stereo not drawn) [VIa]
% Protection [1]: 99.3%
Corrosion rate after 22 hour CI injection [1]: 1.5 mpy

Compound: alkyl dimethyl benzyl chloride quat
% Protection [1]: 99.3%
Corrosion rate after 22 hour CI injection [1]: 1.4 mpy

Compound: trimethylstearyl benzyl chloride quat
% Partitioning to brine phase [2]: 28.4%
